Test results from patent publication US8536164B2, “Fused pyridine compounds as casein kinase inhibitors” (Pfizer Inc., priority 2010, dated 2013).

What was measured:
[1] = target: CKI ε wild type (Homo sapiens, UniProt P49674); test: CK1ε kinase assay (Kinase-Glo); format: biochemical; details: 10 μM ATP, 2.5 nM CKI ε, 70 min at 25° C.; read-out: CK1 ε:IC50
Procedure: (§1) The CK1ε kinase assay was performed in a 40-μl final volume in buffer containing 50 mM Tris, pH 7.5, 10 mM MgCl2, 1 mM dithiothreitol, 100 μg/mL BSA with 10 μM ATP, 2.5 nM CKI ε wild type, and 42 μM peptide substrate PLSRTLp[…] (Flotow et al., 1990) in the presence of 1 μl of CKI ε inhibitor or 4% DMSO. The reaction was incubated for 70 min at 25° C.; detection was carried out as described for the Kinase-Glo Assay (Promega). Luminescent output was measured on the Perkin Elmer Envision plate reader (PerkinElmer, Waltham, Mass.).

[2] = target: T1, human CK1δ (Cos 7 cells cotransfected with mouse Per3-GFP) (Homo sapiens, UniProt P48730); test: CK1 WCA HCS nuclear translocation assay (CK1δ); format: cell-based; details: inhibition of mPer3-GFP translocation to the nucleus, overnight exposure, read-out: CK1 δ WCA EC50
T1 construct: His tag of the vector pcDNA4/hisA (only the vector name is printed); expressed in transfected cells; host or cells: Cos 7 cells
Procedure: (§2) CK1 WCA HCS Nuclear Translocation Assay.
(§3) Cos 7 cells were maintained at 37° C. in 5% CO2 in Dulbecco's Modified Eagle Medium (Gibco 11995) supplemented with 10% fetal bovine serum. Log-phase cells were dislodged with 5 min treatment of TrypLE Express (Gibco 12605) and viable cell count was determined with Cedex cell counter. Cells were diluted in DMEM medium to a density of 1.5e5 viable cells/mL in ⅔ of the final volume of final transfected cell mix. Cells were cotransfected with two plasmid DNAs, mouse Per3-GFP (green fluorescent protein) in pd2EGFP-N1 vector and human CKI in pcDNA4/hisA vector (for CK1Epsilon at a ratio of 1:5 respectively; for CK1δ at a ratio of 1:11 respectively), using Lipofectamine 2000 reagent (Invitrogen) according to the manufacturer's recommendations. The transfection mix contained approximately 0.83 μg/mL of DNA and 6 μL/mL of Lipofectamine 2000, in a total of ⅓ of the final transfection volume in Opti-MEM I medium (Invitrogen). After 20 min at rt, the cell mix was combined with the DNA transfection mix, per manufacturer instructions. 50 μL of the transfected cell suspension was dispensed per well by multidrop dispenser into Greiner 384-well Cellcoat (PDL) plates (Greiner #781946).
(§4) Compounds were solubilized in 100% DMSO, diluted with Opti-MEM I to a 4× concentration before addition to plated cells. After overnight exposure at 37° C. in a CO2 incubator, cells were fixed by the addition of 12% paraformaldehyde (Electron Microscopy Sciences, Hatfield, Pa.) in phosphate-buffered saline (PBS) with 20% sucrose to a final concentration of 4%, and then the cells were incubated for 30 min at rt. Fixative was removed, and cells were washed with PBS and then stained with 0.4 μg/ml Hoechst dye (Invitrogen) in blocking buffer containing 4% goat serum (Vector Labs s-1000) and 0.1% TritonX (Sigma T8787) for 1 h. Cells were washed again with PBS and stored at 4° C. in PBS or scanned immediately with the Cellomics ArrayScan VTI. CKIδ dependent nuclear localization of the GFP-tagged mPer3 protein was quantitated using the Cellomics ArrayScan VTI system utilizing the Cytoplasm to Nucleus translocation bioapplication to calculate the Nuclear-Cytoplasmic Intensity difference. Inhibitors of CK1 δ/ε were tested across a dose response curve to evaluate their ability to inhibit mPer3-GFP translocation to the nucleus. Cells with a total intensity of mPER3:GFP expression equal to or greater than 20,000 are included in analysis.

[3] = target: T2, human CK1Epsilon (Cos 7 cells cotransfected with mouse Per3-GFP) (Homo sapiens, UniProt P49674); test: CK1 WCA HCS nuclear translocation assay (CK1ε); format: cell-based; details: inhibition of mPer3-GFP translocation to the nucleus, overnight exposure, read-out: CK1 ε WCA EC50
T2 construct: His tag of the vector pcDNA4/hisA (only the vector name is printed); expressed in transfected cells; host or cells: Cos 7 cells
Procedure: as §2, §3, §4

[4] = target: CKIδ wild type (Homo sapiens, UniProt P48730); test: CK1δ kinase assay (Kinase-Glo); format: biochemical; details: 10 μM ATP, 2 nM CKIδ, 85 min at 25° C.; read-out: CK1 δ IC50
Procedure: as §1, with “CK1δ” for “CK1ε”, “40 μl” for “40-μl”, “2” for “2.5”, “CKIδ” for “CKI ε”, “85” for “70”

Sequence of CKIδ wild type (P48730 whole entry): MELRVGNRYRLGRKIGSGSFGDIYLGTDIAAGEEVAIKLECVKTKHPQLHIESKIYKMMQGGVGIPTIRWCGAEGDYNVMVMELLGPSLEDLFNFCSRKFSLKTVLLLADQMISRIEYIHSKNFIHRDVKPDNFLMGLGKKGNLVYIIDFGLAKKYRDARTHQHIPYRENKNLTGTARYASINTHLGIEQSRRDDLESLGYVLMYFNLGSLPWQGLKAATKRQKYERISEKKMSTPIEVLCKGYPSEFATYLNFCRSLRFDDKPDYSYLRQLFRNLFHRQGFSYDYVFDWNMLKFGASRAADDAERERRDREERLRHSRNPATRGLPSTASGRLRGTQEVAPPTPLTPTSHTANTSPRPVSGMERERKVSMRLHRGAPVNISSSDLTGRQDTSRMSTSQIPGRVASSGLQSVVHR
T1 sequence (P48730 whole entry): as above
T2 sequence (P49674 whole entry): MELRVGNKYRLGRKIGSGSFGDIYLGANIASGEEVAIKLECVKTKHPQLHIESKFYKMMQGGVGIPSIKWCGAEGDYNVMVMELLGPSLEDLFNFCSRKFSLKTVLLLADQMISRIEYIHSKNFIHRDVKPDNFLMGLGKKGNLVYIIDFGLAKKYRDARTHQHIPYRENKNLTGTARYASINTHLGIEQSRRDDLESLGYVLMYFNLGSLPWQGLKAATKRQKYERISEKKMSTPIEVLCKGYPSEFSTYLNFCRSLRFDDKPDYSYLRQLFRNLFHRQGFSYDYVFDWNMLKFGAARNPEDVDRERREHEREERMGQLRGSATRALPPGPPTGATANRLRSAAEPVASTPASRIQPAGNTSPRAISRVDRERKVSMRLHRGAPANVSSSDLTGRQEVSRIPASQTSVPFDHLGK
Sequence of CKI ε wild type (P49674 whole entry): as above

## Cn1cc(-c2ccnc3c2C(=O)OC3)c(-c2ccc(F)cc2)n1 [Example 1, 4-(3-(4-fluorophenyl)-1-methyl-1H-pyrazol-4-yl)furo[3,4-b]pyridin-5(7H)-one]
[1]
  IC50: 26.9 nM
[2]
  EC50: 59.8 nM
[3]
  EC50: 355 nM
[4]
  IC50: 7.91 nM

## Cn1cc(-c2ccnc3c2C(=O)NC3)c(-c2ccc(F)cc2)n1 [Example 4, 4-[3-(4-fluorophenyl)-1-methyl-1H-pyrazol-4-yl]-6,7-dihydro-5H-pyrrolo[3,4-b]pyridin-5-one]
[1]
  IC50: 72.7 nM
[2]
  EC50: 122 nM
[3]
  EC50: 684 nM
[4]
  IC50: 13.9 nM

## Cn1cc(-c2ccnc3c2OCCNC3)c(-c2ccc(F)cc2)n1 [Example 7, 9-[3-(4-fluorophenyl)-1-methyl-1H-pyrazol-4-yl]-2,3,4,5-tetrahydropyrido[2,3-f][1,4]oxazepine]
[1]
  IC50: 27.6 nM
[2]
  EC50: 39.2 nM
[3]
  EC50: 291 nM
[4]
  IC50: 6.01 nM

## Cn1cc(-c2ccnc3c2CN(S(C)(=O)=O)C3)c(-c2ccc(F)cc2)n1 [Example 10, 4-[3-(4-fluorophenyl)-1-methyl-1H-pyrazol-4-yl]-6-(methylsulfonyl)-6,7-dihydro-5H-pyrrolo[3,4-b]pyridine]
[1]
  IC50: 10.8 nM
[2]
  EC50: 13.5 nM
[3]
  EC50: 62.4 nM
[4]
  IC50: 3.11 nM

## Cn1cc(-c2ccnc3c2CN(C(=O)C2CCOCC2)C3)c(-c2ccc(F)cc2)n1 [Example 19, 4-[3-(4-fluorophenyl)-1-methyl-1H-pyrazol-4-yl]-6-(tetrahydro-2H-pyran-4-ylcarbonyl)-6,7-dihydro-5H-pyrrolo[3,4-b]pyridine]
[2]
  EC50: 54.8 nM
[3]
  EC50: 566 nM

## Cn1cc(-c2ccnc3c2CN(C(=O)Cc2ncccn2)C3)c(-c2ccc(F)cc2)n1 [Example 20, 4-[3-(4-fluorophenyl)-1-methyl-1H-pyrazol-4-yl]-6-(pyrimidin-2-ylacetyl)-6,7-dihydro-5H-pyrrolo[3,4-b]pyridine]
[2]
  EC50: 84.7 nM
[3]
  EC50: 361 nM

## Cn1cc(-c2ccnc3c2CN(C(=O)C2CC2)C3)c(-c2ccc(F)cc2)n1 [Example 21, 6-(cyclopropylcarbonyl)-4-[3-(4-fluorophenyl)-1-methyl-1H-pyrazol-4-yl]-6,7-dihydro-5H-pyrrolo[3,4-b]pyridine]
[2]
  EC50: 18.3 nM
[3]
  EC50: 82.3 nM

## Cn1cc(-c2ccnc3c2CN(C(=O)OCc2ccccc2)C3)c(-c2ccc(F)cc2)n1 [Example 22, benzyl 4-[3-(4-fluorophenyl)-1-methyl-1H-pyrazol-4-yl]-5,7-dihydro-6H-pyrrolo[3,4-b]pyridine-6-carboxylate]
[2]
  EC50: 51.6 nM
[3]
  EC50: 275 nM

## CCN1Cc2nccc(-c3cn(C)nc3-c3ccc(F)cc3)c2C1=O [Example 34, 6-ethyl-4-[3-(4-fluorophenyl)-1-methyl-1H-pyrazol-4-yl]-6,7-dihydro-5H-pyrrolo[3,4-b]pyridin-5-one]
[1]
  IC50: 61.5 nM
[2]
  EC50: 99 nM
[3]
  EC50: 468 nM
[4]
  IC50: 12.4 nM
